Results from patent US20230114728A1 (Venatorx Pharmaceuticals, Inc., priority 2019, published 2023).
In brackets after ≈: the same amount, converted by molar mass.

Key:
Assay in all cases: Broth microdilution MIC in CAMHB
Format in all cases: cell-based
[1] = tested on: A. baumannii ATCC 19606; details: Acinetobacter baumannii, ATCC19606; MHB; read-out: Minimum Inhibitory Concentration, A. baumannii ATCC 19606
Method in brief: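 Hyper-permeable or efflux-deficient strains serve to probe outer-membrane penetration. Growth inhibition is scored visually after 16-20 h at 37° C in CAMHB, starting from 2-8×10^5 CFU/mL.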

[2] = tested on: E. coli 901C; details: Escherichia coli; E. coli 901C (hyper-permeable); MHB; read-out: Minimum Inhibitory Concentration, E. coli 901C
Method in brief: (§1)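 CLSI broth microdilution in CAMHB: 2-fold compound dilutions inoculated at 2-8×10^5 CFU/mL from 3-5 h log-phase cultures. Incubated at 37 °C for 16-20 h (Enterobacteriaceae, Pseudomonas); MIC read visually as lowest concentration without growth. Strains include hyper-permeable and efflux-deficient mutants.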

[3] = tested on: E. coli AG100A; details: Escherichia coli, read-out: Minimum Inhibitory Concentration, E. coli AG100A
Method in brief: as §1

[4] = tested on: E. coli AG100; details: Escherichia coli; E. coli AG100 (wild-type parent); MHB; read-out: Minimum Inhibitory Concentration, E. coli AG100
Method in brief: as §1

[5] = tested on: E. coli ATCC 25922; details: Escherichia coli, ATCC25922; E. coli ATCC 25922; MHB; read-out: Minimum Inhibitory Concentration, E. coli 25922
Method in brief: as §1

[6] = tested on: E. coli D22; details: Escherichia coli; E. coli D22 (hyper-permeable); MHB; read-out: Minimum Inhibitory Concentration, E. coli D22
Method in brief: as §1

[7] = tested on: K. pneumoniae 848844 producing SHV-11 and KPC-2; details: Klebsiella pneumoniae, read-out: Minimum Inhibitory Concentration, K. pneumoniae 848844
Method in brief: as §1

[8] = tested on: K. pneumoniae SI-117 producing VIM-1; details: Klebsiella pneumoniae, read-out: Minimum Inhibitory Concentration, K. pneumoniae SI-117
Method in brief: as §1

[9] = tested on: K. pneumoniae UMM producing SHV-5 and KPC-2; details: Klebsiella pneumoniae, read-out: Minimum Inhibitory Concentration, K. pneumoniae UMM
Method in brief: as §1

[10] = tested on: P. aeruginosa (ΔmexAB-oprM); details: Pseudomonas aeruginosa, read-out: Minimum Inhibitory Concentration, P. aeruginosa ΔmexAB-OprM
Method in brief: as §1

[11] = tested on: P. aeruginosa ATCC 27853; details: Pseudomonas aeruginosa, ATCC27853; MHB; read-out: Minimum Inhibitory Concentration, P. aeruginosa ATCC 27853
Method in brief: as §1

[12] = tested on: P. aeruginosa ATCC 35151; details: Pseudomonas aeruginosa, ATCC35151; MHB; hyper-permeable strain; read-out: Minimum Inhibitory Concentration, P. aeruginosa ATCC 35151
Method in brief: as §1

SMILES	MIC [1]	MIC [2]	MIC [3]	MIC [4]	MIC [5]	MIC [6]	MIC [7]	MIC [8]	MIC [9]	MIC [10]	MIC [11]	MIC [12]
NS(=O)(=O)Nc1cccc(C(NC(=O)N2CCN(CCF)C(=O)C2=O)C(=O)N[C@H]2Cc3cccc(C(=O)O)c3OB2O)c1 (stereo partly drawn) [Example 116, (3R)-3-(2-(4-(2-fluoroethyl)-2,3-dioxopiperazine-1-carboxamido)-2-(3-(sulfamoylamino)phenyl)acetamido)-2-hydroxy-3,4-dihydro-2H-benzo[e][1,2]oxaborinine-8-carboxylic acid]	> 128 µg/mL	< 0.25 µg/mL	2 to 4 µg/mL (≈ 3.22 to 6.45 µM)	8 to 16 µg/mL (≈ 12.9 to 25.8 µM)	8 to 16 µg/mL (≈ 12.9 to 25.8 µM)	0.5 to 1 µg/mL (≈ 0.806 to 1.61 µM)	> 128 µg/mL	32 to 64 µg/mL (≈ 51.6 to 103 µM)	32 to 64 µg/mL (≈ 51.6 to 103 µM)	8 to 16 µg/mL (≈ 12.9 to 25.8 µM)	> 128 µg/mL	0.5 to 1 µg/mL (≈ 0.806 to 1.61 µM)
CCN1CCN(C(=O)NC(C(=O)N[C@H]2Cc3cccc(C(=O)O)c3OB2O)c2c(F)cc(C(=O)O)cc2F)C(=O)C1=O (stereo partly drawn) [Example 157, (3R)-3-(2-(4-carboxy-2,6-difluorophenyl)-2-(4-ethyl-2,3-dioxopiperazine-1-carboxamido)acetamido)-2-hydroxy-3,4-dihydro-2H-benzo[e][1,2]oxaborinine-8-carboxylic acid]	> 128 µg/mL	< 0.25 µg/mL	8 to 16 µg/mL (≈ 13.6 to 27.2 µM)	32 to 64 µg/mL (≈ 54.4 to 109 µM)	32 to 64 µg/mL (≈ 54.4 to 109 µM)	2 to 4 µg/mL (≈ 3.4 to 6.8 µM)	> 128 µg/mL	> 128 µg/mL	32 to 64 µg/mL (≈ 54.4 to 109 µM)	8 to 16 µg/mL (≈ 13.6 to 27.2 µM)	> 128 µg/mL	0.5 to 1 µg/mL (≈ 0.85 to 1.7 µM)
CCN1CCN(C(=O)NC(C(=O)N[C@H]2Cc3cccc(C(=O)O)c3OB2O)c2cc(Cl)c(C(=O)O)cc2F)C(=O)C1=O (stereo partly drawn) [Example 138, (3R)-3-(2-(4-carboxy-5-chloro-2-fluorophenyl)-2-(4-ethyl-2,3-dioxopiperazine-1-carboxamido)acetamido)-2-hydroxy-3,4-dihydro-2H-benzo[e][1,2]oxaborinine-8-carboxylic acid]	> 128 µg/mL	< 0.25 µg/mL	8 to 16 µg/mL (≈ 13.2 to 26.5 µM)	32 to 64 µg/mL (≈ 52.9 to 106 µM)	32 to 64 µg/mL (≈ 52.9 to 106 µM)	2 to 4 µg/mL (≈ 3.31 to 6.61 µM)	> 128 µg/mL	> 128 µg/mL	32 to 64 µg/mL (≈ 52.9 to 106 µM)	32 to 64 µg/mL (≈ 52.9 to 106 µM)	> 128 µg/mL	0.5 to 1 µg/mL (≈ 0.827 to 1.65 µM)
CCN1CCN(C(=O)NC(C(=O)N[C@H]2Cc3cccc(C(=O)O)c3OB2O)c2cccc(CNS(N)(=O)=O)c2)C(=O)C1=O (stereo partly drawn) [Example 107, (3R)-3-(2-(4-ethyl-2,3-dioxopiperazine-1-carboxamido)-2-(3-((sulfamoylamino)methyl)phenyl)acetamido)-2-hydroxy-3,4-dihydro-2H-benzo[e][1,2]oxaborinine-8-carboxylic acid]	> 128 µg/mL	0.5 to 1 µg/mL (≈ 0.811 to 1.62 µM)	2 to 4 µg/mL (≈ 3.24 to 6.49 µM)	> 128 µg/mL	32 to 64 µg/mL (≈ 51.9 to 104 µM)	8 to 16 µg/mL (≈ 13 to 26 µM)	> 128 µg/mL	> 128 µg/mL	> 128 µg/mL	8 to 16 µg/mL (≈ 13 to 26 µM)	> 128 µg/mL	8 to 16 µg/mL (≈ 13 to 26 µM)
NCCN1CCN(C(=O)NC(C(=O)N[C@H]2Cc3cccc(C(=O)O)c3OB2O)c2c(F)cc(NS(N)(=O)=O)cc2F)C(=O)C1=O (stereo partly drawn) [Example 177, (3R)-3-(2-(4-(2-aminoethyl)-2,3-dioxopiperazine-1-carboxamido)-2-(2,6-difluoro-4-(sulfamoylamino)phenyl)acetamido)-2-hydroxy-3,4-dihydro-2H-benzo[e][1,2]oxaborinine-8-carboxylic acid]	> 128 µg/mL	2 to 4 µg/mL (≈ 3.06 to 6.12 µM)	8 to 16 µg/mL (≈ 12.2 to 24.5 µM)	> 128 µg/mL	> 128 µg/mL	32 to 64 µg/mL (≈ 49 to 98 µM)	> 128 µg/mL	> 128 µg/mL	> 128 µg/mL	32 to 64 µg/mL (≈ 49 to 98 µM)	> 128 µg/mL	2 to 4 µg/mL (≈ 3.06 to 6.12 µM)
CCN1CCN(C(=O)NC(C(=O)N[C@H]2Cc3cccc(C(=O)O)c3OB2O)c2cncc(O)c2)C(=O)C1=O (stereo partly drawn) [Example 112, (3R)-3-(2-(4-ethyl-2,3-dioxopiperazine-1-carboxamido)-2-(5-hydroxypyridin-3-yl)acetamido)-2-hydroxy-3,4-dihydro-2H-benzo[e][1,2]oxaborinine-8-carboxylic acid]	> 128 µg/mL	0.5 to 1 µg/mL (≈ 0.952 to 1.9 µM)	2 to 4 µg/mL (≈ 3.81 to 7.61 µM)	32 to 64 µg/mL (≈ 60.9 to 122 µM)	32 to 64 µg/mL (≈ 60.9 to 122 µM)	2 to 4 µg/mL (≈ 3.81 to 7.61 µM)	> 128 µg/mL	> 128 µg/mL	32 to 64 µg/mL (≈ 60.9 to 122 µM)	8 to 16 µg/mL (≈ 15.2 to 30.5 µM)	> 128 µg/mL	2 to 4 µg/mL (≈ 3.81 to 7.61 µM)
CCN1CCN(C(=O)N[C@H](C(=O)N[C@H]2Cc3cccc(C(=O)O)c3OB2O)c2ccc(C(=O)O)c(F)c2)C(=O)C1=O (single isomer, unassigned) [Example 147]	> 128 µg/mL	< 0.25 µg/mL	2 to 4 µg/mL (≈ 3.51 to 7.01 µM)	32 to 64 µg/mL (≈ 56.1 to 112 µM)	32 to 64 µg/mL (≈ 56.1 to 112 µM)	2 to 4 µg/mL (≈ 3.51 to 7.01 µM)	> 128 µg/mL	> 128 µg/mL	32 to 64 µg/mL (≈ 56.1 to 112 µM)	8 to 16 µg/mL (≈ 14 to 28.1 µM)	> 128 µg/mL	< 0.25 µg/mL
NCCCN1CCN(C(=O)N[C@@H](C(=O)N[C@H]2Cc3cccc(C(=O)O)c3OB2O)c2cccc(NS(N)(=O)=O)c2)C(=O)C1=O [Example 117, (R)-3-((R)-2-(4-(3-aminopropyl)-2,3-dioxopiperazine-1-carboxamido)-2-(3-(sulfamoylamino)phenyl)acetamido)-2-hydroxy-3,4-dihydro-2H-benzo[e][1,2]oxaborinine-8-carboxylic acid]	32 to 64 µg/mL (≈ 50.7 to 101 µM)	2 to 4 µg/mL (≈ 3.17 to 6.33 µM)	2 to 4 µg/mL (≈ 3.17 to 6.33 µM)	32 to 64 µg/mL (≈ 50.7 to 101 µM)	32 to 64 µg/mL (≈ 50.7 to 101 µM)	2 to 4 µg/mL (≈ 3.17 to 6.33 µM)	32 to 64 µg/mL (≈ 50.7 to 101 µM)	32 to 64 µg/mL (≈ 50.7 to 101 µM)	32 to 64 µg/mL (≈ 50.7 to 101 µM)	2 to 4 µg/mL (≈ 3.17 to 6.33 µM)	32 to 64 µg/mL (≈ 50.7 to 101 µM)	< 0.25 µg/mL
CCN1CCN(C(=O)NC(C(=O)N[C@H]2Cc3cccc(C(=O)O)c3OB2O)c2cc(F)c(C(=O)O)c(F)c2)C(=O)C1=O (stereo partly drawn) [Example 141, (3R)-3-(2-(4-carboxy-3,5-difluorophenyl)-2-(4-ethyl-2,3-dioxopiperazine-1-carboxamido)acetamido)-2-hydroxy-3,4-dihydro-2H-benzo[e][1,2]oxaborinine-8-carboxylic acid]	> 128 µg/mL	< 0.25 µg/mL	2 to 4 µg/mL (≈ 3.4 to 6.8 µM)	32 to 64 µg/mL (≈ 54.4 to 109 µM)	32 to 64 µg/mL (≈ 54.4 to 109 µM)	2 to 4 µg/mL (≈ 3.4 to 6.8 µM)	> 128 µg/mL	> 128 µg/mL	32 to 64 µg/mL (≈ 54.4 to 109 µM)	32 to 64 µg/mL (≈ 54.4 to 109 µM)	> 128 µg/mL	< 0.25 µg/mL
CCN1CCN(C(=O)NC(C(=O)N[C@H]2Cc3ccc(F)c(C(=O)O)c3OB2O)c2c(F)cc(O)cc2F)C(=O)C1=O (stereo partly drawn) [Example 130, (3R)-3-(2-(2,6-difluoro-4-hydroxyphenyl)-2-(4-ethyl-2,3-dioxopiperazine-1-carboxamido)acetamido)-7-fluoro-2-hydroxy-3,4-dihydro-2H-benzo[e][1,2]oxaborinine-8-carboxylic acid]	> 128 µg/mL	< 0.25 µg/mL	8 to 16 µg/mL (≈ 13.8 to 27.7 µM)	32 to 64 µg/mL (≈ 55.3 to 111 µM)	32 to 64 µg/mL (≈ 55.3 to 111 µM)	2 to 4 µg/mL (≈ 3.46 to 6.92 µM)	32 to 64 µg/mL (≈ 55.3 to 111 µM)	32 to 64 µg/mL (≈ 55.3 to 111 µM)	8 to 16 µg/mL (≈ 13.8 to 27.7 µM)	32 to 64 µg/mL (≈ 55.3 to 111 µM)	> 128 µg/mL	< 0.25 µg/mL
NCCN1CCN(C(=O)NC(C(=O)N[C@H]2Cc3cccc(C(=O)O)c3OB2O)c2c(F)c(F)c(O)c(F)c2F)C(=O)C1=O (stereo partly drawn) [Example 174, (3R)-3-(2-(4-(2-aminoethyl)-2,3-dioxopiperazine-1-carboxamido)-2-(2,3,5,6-tetrafluoro-4-hydroxyphenyl)acetamido)-2-hydroxy-3,4-dihydro-2H-benzo[e][1,2]oxaborinine-8-carboxylic acid]	> 128 µg/mL	0.5 to 1 µg/mL (≈ 0.818 to 1.64 µM)	2 to 4 µg/mL (≈ 3.27 to 6.54 µM)	8 to 16 µg/mL (≈ 13.1 to 26.2 µM)	32 to 64 µg/mL (≈ 52.4 to 105 µM)	2 to 4 µg/mL (≈ 3.27 to 6.54 µM)	> 128 µg/mL	> 128 µg/mL	32 to 64 µg/mL (≈ 52.4 to 105 µM)	8 to 16 µg/mL (≈ 13.1 to 26.2 µM)	> 128 µg/mL	0.5 to 1 µg/mL (≈ 0.818 to 1.64 µM)
